In patent US7491819B1 (priority 2004, dated 2009):

Target: T1, HIV-integrase (Human immunodeficiency virus type 1 group M subtype B, UniProt P12497)
T1 construct: Recombinant integrase (0.26 ng) was incubated with the beads
Assay: HIV-Integrase Inhibition Activity (SPA bead strand-transfer assay)
Assay type: biochemical
Settings: Table 1; read-out: Activity (HIV-integrase inhibition, IC50 class)
Outline: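 Biotin-labelled substrate DNA (5 pmole) bound to streptavidin SPA beads, preloaded with recombinant integrase (0.26 ng) for 90 min at 37° C, then washed. Inhibitors and 0.1 fmol P33-labelled target DNA added; reaction stopped with 10 mM EDTA. Integration read as scintillation CPM.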

Row | Compound | IC50
1 | CNC(=O)c1cc(F)ccc1CNC(=O)c1nc2n(c(=O)c1O)CCOC2 [Example 3, Pyrimido[2,1-c][1,4]oxazine-2-carboxamide, N-[[4-fluoro-2-[(methylamino)carbonyl]phenyl]methyl]-4,6,7,9-tetrahydro-3-hydroxy-4-oxo-] | 2 to 100 nM
2 | CC1(C)OCCCn2c1nc(C(=O)NCc1ccc(F)cc1N1CCC1=O)c(O)c2=O [Example 280, 6H-Pyrimido[2,1-c][1,4]oxazepine-2-carboxamide, N-[[4-fluoro-2-(2-oxo-1-azetidinyl)phenyl]methyl]-4,7,8,10-tetrahydro-3-hydroxy-10,10-dimethyl-4-oxo-] | 2 to 100 nM
3 | CC1(C)OCCn2c1nc(C(=O)NCc1ccc(F)cc1-c1ccccc1)c(O)c2=O [Example 74, Pyrimido[2,1-c][1,4]oxazine-2-carboxamide, N-[(5-fluoro[1,1′-biphenyl]-2-yl)methyl]-4,6,7,9-tetrahydro-3-hydroxy-9,9-dimethyl-4-oxo-] | 2 to 100 nM
4 | CC1(C)OCCn2c1nc(C(=O)NCc1ccc(F)cc1-c1csnn1)c(O)c2=O [Example 84, Pyrimido[2,1-c][1,4]oxazine-2-carboxamide, N-[[4-fluoro-2-(1,2,3-thiadiazol-4-yl)phenyl]methyl]-4,6,7,9-tetrahydro-3-hydroxy-9,9-dimethyl-4-oxo-] | 2 to 100 nM
5 | CC1(C)OCCn2c1nc(C(=O)NCc1ccccc1-c1ccc(N3CCOCC3)cc1)c(O)c2=O [Example 168, Pyrimido[2,1-c][1,4]oxazine-2-carboxamide, 4,6,7,9-tetrahydro-3-hydroxy-9,9-dimethyl-N-[[4′-(4-morpholinyl)[1,1′-biphenyl]-2-yl]methyl]-4-oxo-] | 2 to 100 nM
6 | CC1(C)OCCn2c1nc(C(=O)NCc1ccccc1-c1ccc(CN)cc1)c(O)c2=O [Example 169] | 2 to 100 nM
7 | CC1(C)OCCn2c1nc(C(=O)NCc1ccccc1N1CCOC1=O)c(O)c2=O [Example 122, Pyrimido[2,1-c][1,4]oxazine-2-carboxamide, 4,6,7,9-tetrahydro-3-hydroxy-9,9-dimethyl-4-oxo-N-[[2-(2-oxo-3-oxazolidinyl)phenyl]methyl]-] | 2 to 100 nM
8 | CC1(C)OCCn2c1nc(C(=O)NCCCc1ccccc1)c(O)c2=O [Example 217, Pyrimido[2,1-c][1,4]oxazine-2-carboxamide, 4,6,7,9-tetrahydro-3-hydroxy-9,9-dimethyl-4-oxo-N-(3-phenylpropyl)-] | 2 to 100 nM
9 | CN(C)S(=O)(=O)c1cc(F)ccc1CNC(=O)c1nc2n(c(=O)c1O)CCCOC2(C)C [Example 204, 6H-Pyrimido[2,1-c][1,4]oxazepine-2-carboxamide, N-[[2-[(dimethylamino)sulfonyl]-4-fluorophenyl]methyl]-4,7,8,10-tetrahydro-3-hydroxy-10,10-dimethyl-4-oxo-] | 2 to 100 nM
10 | COc1cccc(CNC(=O)c2nc3n(c(=O)c2O)CCOC3(C)C)c1 [Example 222, Pyrimido[2,1-c][1,4]oxazine-2-carboxamide, 4,6,7,9-tetrahydro-3-hydroxy-N-[(3-methoxyphenyl)methyl]-9,9-dimethyl-4-oxo-] | 2 to 100 nM
11 | CN(C)CCNC(=O)c1cccc(-c2ccccc2CNC(=O)c2nc3n(c(=O)c2O)CCOC3(C)C)c1 [Example 195, Pyrimido[2,1-c][1,4]oxazine-2-carboxamide, N-[[3′-[[[2-(dimethylamino)ethyl]amino]carbonyl][1,1′-bzphenyl]-2-yl]methyl]-4,6,7,9-tetrahydro-3-hydroxy-9,9-dimethyl-4-oxo-] | 2 to 100 nM
12 | CC1(C)OCCn2c1nc(C(=O)NCc1cccc3ccsc13)c(O)c2=O [Example 138, Pyrimido[2,1-c][1,4]oxazine-2-carboxamide, N-(benzo[b]thien-7-ylmethyl)-4,6,7,9-tetrahydro-3-hydroxy-9,9-dimethyl-4-oxo-] | 2 to 100 nM
13 | C[S+]([O-])c1cc(F)ccc1CNC(=O)c1nc2n(c(=O)c1O)CCOC2(C)C (stereo not drawn) [Example 102, Pyrimido[2,1-c][1,4]oxazine-2-carboxamide, N-[[4-fluoro-2-(methylsulfinyl)phenyl]methyl]-4,6,7,9-tetrahydro-3-hydroxy-9,9-dimethyl-4-oxo] | 2 to 100 nM
14 | CC1(C)OCCn2c1nc(C(=O)NCc1ccc(F)cc1N1CCCCCC1=O)c(O)c2=O [Example 125, Pyrimido[2,1-c][1,4]oxazine-2-carboxamide, N-[[4-fluoro-2-(hexahydro-2-oxo-1H-azepin-1-yl)phenyl]methyl]-4,6,7,9-tetrahydro-3-hydroxy-9,9-dimethyl-4-oxo-] | 2 to 100 nM
15 | C[S+]([O-])c1ccccc1CNC(=O)c1nc2n(c(=O)c1O)CCOC2(C)C (stereo not drawn) [Example 113, Pyrimido[2,1-c][1,4]oxazine-2-carboxamide, 4,6,7,9-tetrahydro-3-hydroxy-9,9-dimethyl-N-[[2-(methylsulfinyl)phenyl]methyl]-4-oxo-] | 2 to 100 nM
16 | CC1(C)OCCn2c1nc(C(=O)NCc1ccccc1-c1cccnc1)c(O)c2=O [Example 150, Pyrimido[2,1-c][1,4]oxazine-2-carboxamide, 4,6,7,9-tetrahydro-3-hydroxy-9,9-dimethyl-4-oxo-N-[[2-(3-pyridinyl)phenyl]methyl]-] | 2 to 100 nM
17 | CC(C)(C)OC(=O)N1CCN(c2ccccc2CNC(=O)c2nc3n(c(=O)c2O)CCOC3(C)C)CC1 [Example 261, 1-piperazinecarboxylic acid, 4-[2-[[[(4,6,7,9-tetrahydro-3-hydroxy-9,9-dimethyl-4-oxopyrimido[2,1-c][1,4]oxazin-2-yl)carbonyl]amino]methyl]phenyl]-, 1,1-dimethylethyl ester] | 2 to 100 nM
18 | CC1(C)OCCn2c1nc(C(=O)NCc1ccc(F)cc1-n1cnc(C(=O)NS(C)(=O)=O)n1)c(O)c2=O [Example 64, Pyrimido[2,1-c][1,4]oxazine-2-carboxamide, N-[[4-fluoro-2-[3-[[(methylsulfonyl)amino]carbonyl]-1H-1,2,4-triazol-1-yl]phenyl]methyl]-4,6,7,9-tetrahydro-3-hydroxy-9,9-dimethyl-4-oxo-] | 2 to 100 nM
19 | CNC(=O)c1cc(F)ccc1CNC(=O)c1nc2n(c(=O)c1O)CCCOC2(C)C [Example 118, 6H-Pyrimido[2,1-c][1,4]oxazepine-2-carboxamide, N-[[4-fluoro-2-[(methylamino)carbonyl]phenyl]methyl]-4,7,8,10-tetrahydro-3-hydroxy-10,10-dimethyl-4-oxo-] | 2 to 100 nM
20 | CC1(C)OCCn2c1nc(C(=O)NCc1ccccc1-c1cnn(Cc3ccccc3)c1)c(O)c2=O [Example 155, Pyrimido[2,1-c][1,4]oxazine-2-carboxamide, 4,6,7,9-tetrahydro-3-hydroxy-9,9-dimethyl-4-oxo-N-[[2-[1-(phenylmethyl)-1H-pyrazol-4-yl]phenyl]methyl]-] | 2 to 100 nM
21 | CN(C)C(=O)c1cccc(-c2ccccc2CNC(=O)c2nc3n(c(=O)c2O)CCOC3(C)C)c1 [Example 171] | 2 to 100 nM
22 | CC1(C)OCCn2c1nc(C(=O)NCc1ccc(F)cc1-c1cc(Br)no1)c(O)c2=O [Example 212, Pyrimido[2,1-c][1,4]oxazine-2-carboxamide, N-[[2-(3-bromo-5-isoxazolyl)-4-fluorophenyl]methyl]-4,6,7,9-tetrahydro-3-hydroxy-9,9-dimethyl-4-oxo-] | 2 to 100 nM
23 | CC1(C)OCCn2c1nc(C(=O)NCc1ccccc1N1C(=O)C=CC1=O)c(O)c2=O [Example 137, N-(2-(2,5-Dioxo-2H-pyrrol-1(5H)-yl)benzyl)-3-hydroxy-9,9-dimethyl-4-oxo-4,6,7,9-tetrahydropyrimido[2,1-c][1,4]oxazine-2-carboxamide] | 2 to 100 nM
24 | Cc1ccc(CNC(=O)c2nc3n(c(=O)c2O)CCOC3(C)C)c(F)c1F [Example 276, Pyrimido[2,1-c][1, 4]oxazine-2-carboxamide, N-[(2,3-difluoro-4-methylphenyl)methyl]-4,6,7,9-tetrahydro-3-hydroxy-9,9-dimethyl-4-oxo-] | 2 to 100 nM
25 | CNC(=O)c1ncn(-c2cc(F)ccc2CNC(=O)c2nc3n(c(=O)c2O)CCOC3(C)C)n1 [Example 65, Pyrimido[2,1-c][1,4]oxazine-2-carboxamide, 4,6,7,9-tetrahydro-3-hydroxy-N-[(1R)-2-hydroxy-1-phenylethyl]-9,9-dimethyl-4-oxo-] | 2 to 100 nM
26 | CC1(C)OCCn2c1nc(C(=O)NCc1ccc(F)cc1N1CCOC1=O)c(O)c2=O [Example 127, N-(4-Fluoro-2-(2-oxooxazolidin-3-yl)benzyl)-3-hydroxy-9,9-dimethyl-4-oxo-4,6,7,9-tetrahydropyrimido[2,1-c][1,4]oxazine-2-carboxamide] | 2 to 100 nM
27 | COc1cncc(-c2ccccc2CNC(=O)c2nc3n(c(=O)c2O)CCOC3(C)C)c1 [Example 153, Pyrimido[2,1-c][1,4]oxazine-2-carboxamide, 4,6,7,9-tetrahydro-3-hydroxy-N-[[2-(5-methoxy-3-pyridinyl)phenyl]methyl]-9,9-dimethyl-4-oxo-] | 2 to 100 nM
28 | CC1(C)OCCn2c1nc(C(=O)NCc1ccccc1-c1cccc(NS(C)(=O)=O)c1)c(O)c2=O [Example 176, Pyrimido[2,1-c][1,4]oxazine-2-carboxamide, 4,6,7,9-tetrahydro-3-hydroxy-9,9-dimethyl-N-[[3′-[(methylsulfonyl)amino][1,1′-biphenyl]-2-yl]methyl]-4-oxo-] | 2 to 100 nM
29 | CC1(C)OCCn2c1nc(C(=O)NCc1cccc(Cl)c1Cl)c(O)c2=O [Example 227, Pyrimido[2,1-c][1,4]oxazine-2-carboxamide, N-[(2,3-dichlorophenyl)methyl]-4,6,7,9-tetrahydro-3-hydroxy-9,9-dimethyl-4-oxo-] | 2 to 100 nM
30 | CCC1OCCn2c1nc(C(=O)NCc1ccc(F)cc1-n1cncn1)c(O)c2=O (stereo not drawn) [Example 16, Pyrimido[2,1-c][1,4]oxazine-2-carboxamide, 9-ethyl-N-[[4-fluoro-2-(1H-1,2,4-triazol-1-yl)phenyl]methyl]-4,6,7,9-tetrahydro-3-hydroxy-4-oxo-] | 2 to 100 nM
